Measured values: ChEMBL document CHEMBL1147331, “Cytotoxic and antimalarial bisbenzylisoquinoline alkaloids from Stephania erecta” (J Nat Prod, 1993)
Converted amounts (≈) assume the structure as drawn.

What was measured:
[1] = Selectivity index, ratio of ED50 for human HT1080 cells to ED50 for chloroquine-sensitive Plasmodium falciparum D6; type: toxicity, cell-based, HT-1080; conditions: read-out: Ratio ED50
in vitro [2] = conditions: mouse, P388 cells
Description: Selectivity index, ratio of ED50 for mice (Mus musculus) P388 cells to ED50 for chloroquine-sensitive Plasmodium falciparum D6

[3] = Cytotoxicity against human BCA1 cells after 3 days by sulforhodamine B assay; type: cell-based; conditions: read-out: ED50
[4] = Selectivity index, ratio of ED50 for human MEL2 cells to ED50 for chloroquine-resistant Plasmodium falciparum W2; type: toxicity, cell-based; conditions: read-out: Ratio ED50
Plasmodium falciparum [5] = test: Antimalarial activity after 24 hrs against chloroquine-sensitive Plasmodium falciparum D6 infected type A+ human erythrocytes by [3H]hypoxanthine uptake; type: functional; conditions: read-out: ED50 (the source's name)
[6] = Selectivity index, ratio of ED50 for human BCA1 cells to ED50 for chloroquine-resistant Plasmodium falciparum W2; type: toxicity, cell-based; conditions: read-out: Ratio ED50
[7] = Cytotoxicity against human Col1 cells after 3 days by sulforhodamine B assay; type: cell-based; conditions: read-out: ED50
[8] = Selectivity index, ratio of ED50 for human KB-V1 cells to ED50 for chloroquine-sensitive Plasmodium falciparum D6; type: toxicity, cell-based; conditions: read-out: Ratio ED50
[9] = Cytotoxicity against human LNCAP cells after 3 days by sulforhodamine B assay; type: cell-based; conditions: read-out: ED50
[10] = Selectivity index, ratio of ED50 for human ZR-75-1 cells to ED50 for chloroquine-sensitive Plasmodium falciparum D6; type: toxicity, cell-based; conditions: read-out: Ratio ED50
[11] = Selectivity index, ratio of ED50 for human COL1 cells to ED50 for chloroquine-sensitive Plasmodium falciparum D6; type: toxicity, cell-based; conditions: read-out: Ratio ED50
[12] = Selectivity index, ratio of ED50 for human LNCaP cells to ED50 for chloroquine-resistant Plasmodium falciparum W2; type: toxicity, cell-based; conditions: read-out: Ratio ED50
[13] = Selectivity index, ratio of ED50 for human KB cells to ED50 for chloroquine-resistant Plasmodium falciparum W2; type: toxicity, cell-based; conditions: read-out: Ratio ED50
[14] = Cytotoxicity against human HT1080 cells after 3 days by sulforhodamine B assay; type: cell-based, HT-1080; conditions: read-out: ED50
[15] = Selectivity index, ratio of ED50 for human KB-V1 cells to ED50 for chloroquine-resistant Plasmodium falciparum W2; type: toxicity, cell-based; conditions: read-out: Ratio ED50
[16] = Cytotoxicity against human LUC1 cells after 3 days by sulforhodamine B assay; type: cell-based; conditions: read-out: ED50
[17] = Cytotoxicity against human SK-MEL-2 cells after 3 days by sulforhodamine B assay; type: cell-based; conditions: read-out: ED50
in vitro [18] = conditions: mouse, P388 cells; remark: listed apart in the source
Description: Selectivity index, ratio of ED50 for mice (Mus musculus) P388 cells to ED50 for chloroquine-resistant Plasmodium falciparum W2

[19] = Selectivity index, ratio of ED50 for human KB cells to ED50 for chloroquine-sensitive Plasmodium falciparum D6; type: toxicity, cell-based; conditions: read-out: Ratio ED50
[20] = Cytotoxicity against human ZR-75-1 cells after 3 days by sulforhodamine B assay; type: cell-based; conditions: read-out: ED50
[21] = Selectivity index, ratio of ED50 for human MEL2 cells to ED50 for chloroquine-sensitive Plasmodium falciparum D6; type: toxicity, cell-based; conditions: read-out: Ratio ED50
[22] = Selectivity index, ratio of ED50 for human ZR-75-1 cells to ED50 for chloroquine-resistant Plasmodium falciparum W2; type: toxicity, cell-based; conditions: read-out: Ratio ED50
in vitro [23] = conditions: human, A431 cells
Description: Selectivity index, ratio of ED50 for human A431 cells to ED50 for chloroquine-resistant Plasmodium falciparum W2

[24] = Selectivity index, ratio of ED50 for human LUC1 cells to ED50 for chloroquine-sensitive Plasmodium falciparum D6; type: toxicity, cell-based; conditions: read-out: Ratio ED50
[25] = Cytotoxicity against mouse P388 cells after 2 days by sulforhodamine B assay; type: cell-based; conditions: read-out: ED50
[26] = Selectivity index, ratio of ED50 for human LUC1 cells to ED50 for chloroquine-resistant Plasmodium falciparum W2; type: toxicity, cell-based; conditions: read-out: Ratio ED50
[27] = Cytotoxicity against human KB cells after 3 days by sulforhodamine B assay; type: cell-based; conditions: read-out: ED50
Plasmodium falciparum [28] = test: Antimalarial activity after 24 hrs against chloroquine-resistant Plasmodium falciparum W2 infected type A+ human erythrocytes by [3H]hypoxanthine uptake; type: functional; conditions: read-out: ED50 (the source's name)
[29] = Selectivity index, ratio of ED50 for human COL1 cells to ED50 for chloroquine-resistant Plasmodium falciparum W2; type: toxicity, cell-based; conditions: read-out: Ratio ED50
[30] = Selectivity index, ratio of ED50 for human BCA1 cells to ED50 for chloroquine-sensitive Plasmodium falciparum D6; type: toxicity, cell-based; conditions: read-out: Ratio ED50
[31] = Selectivity index, ratio of ED50 for human HT1080 cells to ED50 for chloroquine-resistant Plasmodium falciparum W2; type: toxicity, cell-based, HT-1080; conditions: read-out: Ratio ED50
in vitro [32] = conditions: human, A431 cells; remark: listed apart in the source
Description: Selectivity index, ratio of ED50 for human A431 cells to ED50 for chloroquine-sensitive Plasmodium falciparum D6

[33] = Cytotoxicity against human KBV1 cells after 3 days by sulforhodamine B assay; type: cell-based, KB-V1; conditions: read-out: ED50
[34] = Cytotoxicity against human A431 cells after 3 days by sulforhodamine B assay; type: cell-based, A-431; conditions: read-out: ED50
[35] = Selectivity index, ratio of ED50 for human LNCaP cells to ED50 for chloroquine-sensitive Plasmodium falciparum D6; type: toxicity, cell-based; conditions: read-out: Ratio ED50

SMILES: COc1ccc2cc1Oc1ccc(cc1)C[C@H]1c3c(cc4c(c3Oc3cc5c(cc3OC)CCN(C)[C@@H]5C2)OCO4)CCN1C [CEPHARANTHINE]
- selectivity ratio [1]: 44
- selectivity ratio (in vitro [2]): 2
- CC50 at 72 h [3]: 4.7 µg/mL (≈ 7.75 µM)
- selectivity ratio [4]: 49
- EC50 (Plasmodium falciparum [5]): 0.14 µg/mL (≈ 0.231 µM)
- selectivity ratio [6]: 16
- CC50 at 72 h [7]: 9 µg/mL (≈ 14.8 µM)
- selectivity ratio [8]: 6
- CC50 at 72 h [9]: 5.6 µg/mL (≈ 9.23 µM)
- selectivity ratio [10]: 7
- selectivity ratio [11]: 64
- selectivity ratio [12]: 19
- selectivity ratio [13]: 20
- CC50 at 72 h [14]: 6.1 µg/mL (≈ 10.1 µM)
- selectivity ratio [15]: 3
- CC50 at 72 h [16]: 8.8 µg/mL (≈ 14.5 µM)
- CC50 at 72 h [17]: 14.5 µg/mL (≈ 23.9 µM)
- selectivity ratio (in vitro [18]): 1
- selectivity ratio [19]: 42
- CC50 at 72 h [20]: 1 µg/mL (≈ 1.65 µM)
- selectivity ratio [21]: 103
- selectivity ratio [22]: 3
- selectivity ratio (in vitro [23]): 7
- selectivity ratio [24]: 52
- CC50 at 48 h [25]: 0.3 µg/mL (≈ 0.494 µM)
- selectivity ratio [26]: 25
- CC50 at 72 h [27]: 5.9 µg/mL (≈ 9.72 µM)
- EC50 (Plasmodium falciparum [28]): 0.295 µg/mL (≈ 0.486 µM)
- selectivity ratio [29]: 31
- selectivity ratio [30]: 34
- selectivity ratio [31]: 21
- selectivity ratio (in vitro [32]): 15
- CC50 at 72 h [33]: 0.9 µg/mL (≈ 1.48 µM)
- CC50 at 72 h [34]: 2.1 µg/mL (≈ 3.46 µM)
- selectivity ratio [35]: 40

SMILES: COc1ccc2cc1Oc1ccc(cc1)C[C@H]1c3cc(c(OC)cc3CCN1C)Oc1c(O)c(OC)cc3c1[C@@H](C2)N(C)CC3
- selectivity ratio [1]: 83
- selectivity ratio (in vitro [2]): 61
- CC50 at 72 h [3]: 5 µg/mL (≈ 8.21 µM)
- selectivity ratio [4]: 65
- EC50 (Plasmodium falciparum [5]): 0.121 µg/mL (≈ 0.198 µM)
- selectivity ratio [6]: 22
- CC50 at 72 h [7]: 11.1 µg/mL (≈ 18.2 µM)
- selectivity ratio [8]: 31
- CC50 at 72 h [9]: 5.9 µg/mL (≈ 9.69 µM)
- selectivity ratio [10]: 21
- selectivity ratio [11]: 92
- selectivity ratio [12]: 26
- selectivity ratio [13]: 28
- CC50 at 72 h [14]: 10 µg/mL (≈ 16.4 µM)
- selectivity ratio [15]: 16
- CC50 at 72 h [16]: 9.7 µg/mL (≈ 15.9 µM)
- CC50 at 72 h [17]: 14.9 µg/mL (≈ 24.5 µM)
- selectivity ratio (in vitro [18]): 32
- selectivity ratio [19]: 54
- CC50 at 72 h [20]: 2.5 µg/mL (≈ 4.11 µM)
- selectivity ratio [21]: 124
- selectivity ratio [22]: 11
- selectivity ratio (in vitro [23]): 21
- selectivity ratio [24]: 80
- CC50 at 48 h [25]: 7.4 µg/mL (≈ 12.2 µM)
- selectivity ratio [26]: 42
- CC50 at 72 h [27]: 6.5 µg/mL (≈ 10.7 µM)
- EC50 (Plasmodium falciparum [28]): 0.23 µg/mL (≈ 0.377 µM)
- selectivity ratio [29]: 48
- selectivity ratio [30]: 42
- selectivity ratio [31]: 44
- selectivity ratio (in vitro [32]): 41
- CC50 at 72 h [33]: 3.7 µg/mL (≈ 6.08 µM)
- CC50 at 72 h [34]: 4.9 µg/mL (≈ 8.05 µM)
- selectivity ratio [35]: 49

SMILES: C=C[C@H]1CN2CC[C@H]1C[C@H]2[C@H](O)c1ccnc2ccc(OC)cc12 [QUININE]
- selectivity ratio [1]: > 2630
- selectivity ratio (in vitro [2]): > 658
- CC50 at 72 h [3]: > 20 µg/mL
- selectivity ratio [4]: 649
- EC50 (Plasmodium falciparum [5]): 0.0076 µg/mL (≈ 0.0234 µM)
- selectivity ratio [6]: 649
- CC50 at 72 h [7]: > 20 µg/mL
- selectivity ratio [8]: 737
- CC50 at 72 h [9]: > 20 µg/mL
- selectivity ratio [10]: > 2630
- selectivity ratio [11]: > 2630
- selectivity ratio [12]: 649
- selectivity ratio [13]: 649
- CC50 at 72 h [14]: > 20 µg/mL
- selectivity ratio [15]: 182
- CC50 at 72 h [16]: > 20 µg/mL
- CC50 at 72 h [17]: > 20 µg/mL
- selectivity ratio (in vitro [18]): > 658
- selectivity ratio [19]: > 2630
- CC50 at 72 h [20]: > 20 µg/mL
- selectivity ratio [21]: > 2630
- selectivity ratio [22]: 649
- selectivity ratio (in vitro [23]): 649
- selectivity ratio [24]: > 2630
- CC50 at 48 h [25]: > 5 µg/mL
- selectivity ratio [26]: 649
- CC50 at 72 h [27]: > 20 µg/mL
- EC50 (Plasmodium falciparum [28]): 0.0308 µg/mL (≈ 0.0949 µM)
- selectivity ratio [29]: 649
- selectivity ratio [30]: > 2630
- selectivity ratio [31]: 649
- selectivity ratio (in vitro [32]): > 2630
- CC50 at 72 h [33]: 5.6 µg/mL (≈ 17.3 µM)
- CC50 at 72 h [34]: > 20 µg/mL
- selectivity ratio [35]: > 2630

SMILES: COc1ccc2cc1Oc1ccc(cc1)C[C@H]1c3c(cc(OC)c(O)c3Oc3cc4c(cc3OC)CCN[C@@H]4C2)CCN1C
- selectivity ratio [1]: 110
- selectivity ratio (in vitro [2]): 32
- CC50 at 72 h [3]: 4.6 µg/mL (≈ 7.73 µM)
- selectivity ratio [4]: 60
- EC50 (Plasmodium falciparum [5]): 0.063 µg/mL (≈ 0.106 µM)
- selectivity ratio [6]: 21
- CC50 at 72 h [7]: 10.3 µg/mL (≈ 17.3 µM)
- selectivity ratio [8]: 35
- CC50 at 72 h [9]: 5.8 µg/mL (≈ 9.75 µM)
- selectivity ratio [10]: 29
- selectivity ratio [11]: 164
- selectivity ratio [12]: 26
- selectivity ratio [13]: 26
- CC50 at 72 h [14]: 6.9 µg/mL (≈ 11.6 µM)
- selectivity ratio [15]: 10
- CC50 at 72 h [16]: 9 µg/mL (≈ 15.1 µM)
- CC50 at 72 h [17]: 13.4 µg/mL (≈ 22.5 µM)
- selectivity ratio (in vitro [18]): 9
- selectivity ratio [19]: 92
- CC50 at 72 h [20]: 1.8 µg/mL (≈ 3.03 µM)
- selectivity ratio [21]: 213
- selectivity ratio [22]: 8
- selectivity ratio (in vitro [23]): 37
- selectivity ratio [24]: 143
- CC50 at 48 h [25]: 2 µg/mL (≈ 3.36 µM)
- selectivity ratio [26]: 40
- CC50 at 72 h [27]: 5.8 µg/mL (≈ 9.75 µM)
- EC50 (Plasmodium falciparum [28]): 0.223 µg/mL (≈ 0.375 µM)
- selectivity ratio [29]: 46
- selectivity ratio [30]: 73
- selectivity ratio [31]: 31
- selectivity ratio (in vitro [32]): 132
- CC50 at 72 h [33]: 2.2 µg/mL (≈ 3.7 µM)
- CC50 at 72 h [34]: 8.3 µg/mL (≈ 14 µM)
- selectivity ratio [35]: 92
